Experimental data reported in ChEMBL document CHEMBL5360528, “A systematic review on the kappa opioid receptor and its ligands: New directions for the treatment of pain, anxiety, depression, and drug abuse” (Eur J Med Chem, 2022).
Where a SMILES comes first, the peptide text is derived from it. [ ]: non-standard residue; d: D form. βAla = NCCC(=O)O

How the values were obtained:
Mus musculus [1] = assay: Antinociceptive activity in sc dosed mouse measured after 60 mins by warm water tail-flick assay; format: functional; settings: 1 h
Mus musculus [2] = assay: Antinociceptive activity in sc dosed mouse assessed as inhibition of acetic acid-induced abdominal constrictions by writhing test; format: functional
[3] = biological target: T1, Kappa-type opioid receptor (Homo sapiens, UniProt P41145); assay: Agonist activity at wild type human KOR receptor expressed in CHO cells assessed as stimulation of [35S]GTPgammaS binding measured after 30 mins by scintillation counting assay; format: functional, cell-based
[4] = biological target: T1, Kappa-type opioid receptor; assay: Binding affinity to wild type human KOR assessed as inhibition constant
[5] = biological target: Kappa-type opioid receptor (Cavia porcellus, UniProt P41144); assay: Agonist activity at KOR in guinea pig brain membranes assessed as stimulation of [35S]GTPgammaS binding measured after 1 hr by liquid scintillation counting analysis; format: functional, cell membranes, Membrane
Mu-type opioid receptor [6] = biological target: T2, Mu-type opioid receptor (Homo sapiens, UniProt P35372); assay: Binding affinity to MOR (unknown origin) assessed as inhibition constant by radioligand binding assay
[7] = biological target: T3, Delta-type opioid receptor (Homo sapiens, UniProt P41143); assay: Binding affinity to human DOR assessed as inhibition constant
Mus musculus [8] = species on record: Mus musculus; assay: Analgesic activity in acetic acid induced mouse assessed as assessed as reduction in acetic acid induced writhing […]; format: functional
Mus musculus [9] = assay: Analgesic activity in sc dosed acetic acid induced mouse assessed as assessed as reduction in acetic acid induced writhing […]; format: functional
[10] = biological target: T1, Kappa-type opioid receptor; assay: Binding affinity to KOR (unknown origin) assessed as inhibition constant
Mus musculus [11] = assay: Antinociceptive activity in CD-1 mouse assessed as maximum possible effect at 10 nmol, icv measured after 15 mins by tail-flick test; format: functional; settings: 0.25 h
Mus musculus [12] = assay: Antinociceptive activity in C57BL/6 mouse model of acute thermal pain assessed as paw withdrawal thermal threshold time at 1 mg/kg, po measured after 4 hrs by hot plate test; format: functional
Mus musculus [13] = assay: Antinociceptive activity in ip dosed mouse assessed as inhibition of acetic acid-induced abdominal constrictions by writhing test; format: functional
Mus musculus [14] = assay: Antinociceptive activity in sc dosed Ach-induced mouse assessed as inhibition of abdominal constriction; format: functional
[15] = biological target: Kappa-type opioid receptor (Mus musculus, UniProt P33534); assay: Agonist activity at KOR in mouse vas deferens assessed as inhibition of electrically evoked vas deferens contraction
[16] = biological target: T3, Delta-type opioid receptor; assay: Binding affinity to DOR (unknown origin) assessed as inhibition constant by ratio ligand binding assay
[17] = biological target: T1, Kappa-type opioid receptor; assay: Agonist activity at KOR (unknown origin) by measuring cAMP inhibition; format: functional
[18] = biological target: T1, Kappa-type opioid receptor; assay: Binding affinity to human recombinant KOR assessed as inhibition constant
[19] = Half life in human; format: ADME
[20] = Tmax in Sprague-Dawley rat at 1 mg/kg, iv by LC-MS analysis; format: ADME, organism-based; settings: in vivo
Mu-type opioid receptor [21] = biological target: T2, Mu-type opioid receptor; assay: Binding affinity to human MOR expressed in HEK293 cells assessed as inhibition constant by GTPgammaS assay; format: cell-based
[22] = biological target: T3, Delta-type opioid receptor; assay: Binding affinity human DOR expressed in CHO cells assessed as inhibition constant by radio ligand binding assay; format: cell-based
Mus musculus [23] = species on record: Mus musculus; assay: Antinociceptive activity in C57BL/6 mouse model of acute thermal pain assessed as paw withdrawal thermal threshold time by hot plate test; format: functional
[24] = biological target: Kappa-type opioid receptor (Cavia porcellus) (UniProt P41144); assay: Agonist activity at KOR in guinea pig brain membranes assessed as stimulation of [35S]GTPgammaS binding relative to control; format: functional, cell membranes; settings: Membrane, filed as agonist
[25] = biological target: T3, Delta-type opioid receptor; assay: Binding affinity to human DOR expressed in HEK293 cells assessed as inhibition constant by GTPgammaS assay; format: cell-based
[26] = Half life in C57BL/6 mouse plasma at 20 mg/kg, ip by LC-MS/MS analysis; format: ADME, organism-based
[27] = Half life in C57BL/6 mouse […] at 20 mg/kg, ip by LC-MS/MS analysis; format: ADME, organism-based
[28] = Half life in C57BL/6 mouse brain at 20 mg/kg, ip by LC-MS/MS analysis; format: ADME, organism-based
[29] = biological target: T1, Kappa-type opioid receptor; assay: Binding affinity to human KOR expressed in HEK293 cells assessed as inhibition of forskolin-stimulated cAMP accumulation by HTRF assay; format: cell-based
Mu-type opioid receptor [30] = biological target: T2, Mu-type opioid receptor; assay: Agonist activity at human MOR expressed in CHO-K1 cells assessed as inhibition of forskolin-stimulated cAMP accumulation incubated for 45 mins by cAMP HTRF assay; format: functional, cell-based
Mus musculus [31] = species on record: Mus musculus; assay: Antinociceptive activity in CFA-induced mechanical allodynia CD1 mouse model assessed as reduction in mechanical allodynia; format: functional
Mus musculus [32] = assay: Antinociceptive activity in CFA-induced mechanical allodynia in CD1 mouse model assessed as reduction in nociceptive response by measuring effective dose at iv administration; format: functional
Mus musculus [33] = assay: Analgesic activity in iv dosed DBTC-induced neuropathic pain CD1 mouse model assessed as effective dose measured for 1 weeks; format: functional; settings: CD1, 168 h
Mus musculus [34] = assay: Antinociceptive activity in CFA-induced mechanical allodynia in CD1 mouse model assessed as reduction in nociceptive response by measuring effective dose at ip administration; format: functional
[35] = biological target: T1, Kappa-type opioid receptor; assay: Binding affinity to KOR (unknown origin) expressed in CHO-K1 cell membrane assessed as stimulation of [35S]-GTPgammaS binding incubated for 1.5 hrs by scintillation spectroscopy analysis relative DAMGO; format: cell membranes
Mus musculus [36] = species on record: Mus musculus; assay: Antinociceptive activity in Sprague-Dawley mouse assessed as inhibition of acetic acid-induced abdominal constrictions in presence of naloxone; format: functional
Mus musculus [37] = species on record: Mus musculus; assay: Antinociceptive activity in Sprague-Dawley mouse assessed as inhibition of acetic acid-induced abdominal constrictions; format: functional

T2 sequence (P35372 whole entry): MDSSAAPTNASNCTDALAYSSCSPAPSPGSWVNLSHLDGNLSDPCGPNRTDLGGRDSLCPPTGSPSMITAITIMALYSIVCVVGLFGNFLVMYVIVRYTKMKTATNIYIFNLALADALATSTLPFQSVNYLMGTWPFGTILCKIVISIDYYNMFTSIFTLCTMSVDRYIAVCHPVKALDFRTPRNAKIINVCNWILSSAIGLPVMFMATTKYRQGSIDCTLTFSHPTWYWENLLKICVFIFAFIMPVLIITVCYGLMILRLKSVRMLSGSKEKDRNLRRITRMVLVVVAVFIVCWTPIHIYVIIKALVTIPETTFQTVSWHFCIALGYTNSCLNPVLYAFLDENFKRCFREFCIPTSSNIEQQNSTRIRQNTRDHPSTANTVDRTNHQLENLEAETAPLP
T3 sequence (P41143 whole entry): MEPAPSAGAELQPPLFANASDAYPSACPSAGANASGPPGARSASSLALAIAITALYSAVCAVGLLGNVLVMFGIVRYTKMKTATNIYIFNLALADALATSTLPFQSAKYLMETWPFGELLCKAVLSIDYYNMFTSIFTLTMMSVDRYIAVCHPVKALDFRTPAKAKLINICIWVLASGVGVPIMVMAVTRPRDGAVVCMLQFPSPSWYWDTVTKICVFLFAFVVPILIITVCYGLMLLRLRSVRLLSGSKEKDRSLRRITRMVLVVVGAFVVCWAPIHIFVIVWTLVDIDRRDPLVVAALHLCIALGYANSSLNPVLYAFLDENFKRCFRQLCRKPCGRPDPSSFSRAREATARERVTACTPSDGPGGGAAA
T1 sequence (P41145 whole entry): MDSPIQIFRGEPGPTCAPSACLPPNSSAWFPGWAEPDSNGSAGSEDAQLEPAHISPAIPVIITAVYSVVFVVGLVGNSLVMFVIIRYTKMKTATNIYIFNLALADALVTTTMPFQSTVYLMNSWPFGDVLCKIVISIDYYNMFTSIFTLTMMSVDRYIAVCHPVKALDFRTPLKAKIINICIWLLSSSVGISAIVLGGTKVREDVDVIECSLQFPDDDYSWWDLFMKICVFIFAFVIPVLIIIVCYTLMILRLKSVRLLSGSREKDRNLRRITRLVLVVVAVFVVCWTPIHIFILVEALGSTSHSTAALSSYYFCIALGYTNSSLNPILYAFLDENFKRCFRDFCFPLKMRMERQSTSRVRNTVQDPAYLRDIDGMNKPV
Sequence of Kappa-type opioid receptor (Mus musculus, UniProt P33534) (P33534 whole entry): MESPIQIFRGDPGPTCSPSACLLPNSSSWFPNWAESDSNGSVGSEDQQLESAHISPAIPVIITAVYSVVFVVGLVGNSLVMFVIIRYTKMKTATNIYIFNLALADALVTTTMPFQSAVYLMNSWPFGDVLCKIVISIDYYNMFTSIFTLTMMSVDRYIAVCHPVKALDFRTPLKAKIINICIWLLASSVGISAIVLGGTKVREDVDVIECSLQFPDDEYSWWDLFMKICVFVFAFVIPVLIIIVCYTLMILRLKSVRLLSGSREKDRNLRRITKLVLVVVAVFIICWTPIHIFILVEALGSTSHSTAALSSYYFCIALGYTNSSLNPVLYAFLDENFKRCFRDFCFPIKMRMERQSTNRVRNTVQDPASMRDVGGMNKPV
Sequence of Kappa-type opioid receptor (Cavia porcellus, UniProt P41144) (P41144 whole entry): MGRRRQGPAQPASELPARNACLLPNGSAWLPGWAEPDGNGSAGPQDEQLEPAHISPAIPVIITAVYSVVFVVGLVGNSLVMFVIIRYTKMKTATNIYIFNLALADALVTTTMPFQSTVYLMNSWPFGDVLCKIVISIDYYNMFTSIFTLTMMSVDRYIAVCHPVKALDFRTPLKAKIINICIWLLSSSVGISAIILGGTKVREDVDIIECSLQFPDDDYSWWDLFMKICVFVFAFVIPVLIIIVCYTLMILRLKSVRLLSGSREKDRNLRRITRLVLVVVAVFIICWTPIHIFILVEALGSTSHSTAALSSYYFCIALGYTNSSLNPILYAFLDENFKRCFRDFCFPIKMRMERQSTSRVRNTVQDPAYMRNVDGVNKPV
Sequence of Kappa-type opioid receptor (Cavia porcellus) (P41144 whole entry): as above

Oc1ccc2c(c1)[C@@]13CCCC[C@H]1[C@@H](C2)N(CC1CCC1)CC3 [BUTORPHAN]
ED50 (Mus musculus [1]): 7.3 nmol
ED50 (Mus musculus [2]): 0.79 nmol

O=C(O[C@@H]1[C@@H]2[C@H]3C[C@@H](C[C@H]2C(=O)O[C@H]1c1ccoc1)OC3=O)c1ccccc1
EC50 [3]: 2 nM
Ki [4]: 9 nM
Ki [5]: > 5000 nM

O=C(N[C@@H]1C=C[C@H]2[C@H]3Cc4ccc(O)c5c4[C@@]2(CCN3CC2CC2)[C@H]1O5)c1cccc(I)c1
Ki (Mu-type opioid receptor [6]): 0.021 nM
Ki [4]: 0.006 nM
Ki [7]: 0.08 nM
ED50 (Mus musculus [8]): 0.33 mg/kg
ED50 (Mus musculus [9]): 1 mg/kg

CC(C)C[C@@H](NC(=O)[C@@H](Cc1ccccc1)NC(=O)[C@H](N)Cc1ccccc1)C(=O)N[C@H](CCCCN)C(=O)N1CCC(N)(C(=O)O)CC1 [listing 1 of 2 here]
Ki (Mu-type opioid receptor [6]): > 10000 nM
Ki [10]: 0.32 nM

O=C(N[C@@H]1CC[C@@]2(O)[C@H]3Cc4ccc(O)c5c4[C@@]2(CCN3CC2CC2)[C@H]1O5)c1ccc2ccccc2c1
ED50 (Mus musculus [11]): 18.7 pmol

CCCC[C@@H](NC(=O)[C@@H](CC1=CC=CCC1)NC(=O)[C@H](N)Cc1ccccc1)C(=O)N[C@H](CCCNC(=N)N)C(=O)NCc1ccncc1
Ki [10]: 0.24 nM
AD50 (Mus musculus [12]): 0.007 mg/kg

CN(C(=O)/C=C/c1ccoc1)[C@@H]1CC[C@@]2(O)[C@H]3Cc4ccc(O)c5c4[C@@]2(CCN3CC2CC2)[C@H]1O5 [NALFURAFINE]
ED50 (Mus musculus [1]; Mus musculus, read-out: ED50): 0.003 mg/kg
ED50 (Mus musculus [2]; Mus musculus, read-out: ED50): 0.062 mg/kg

C[C@H]1[C@H]2Cc3ccc(C(N)=O)cc3[C@@]1(C)CCN2CC1CC1
Ki [7]: 4.9 nM
ED50 (Mus musculus [13]): 0.21 nmol

COC(=O)N1CCN(C(=O)Cc2ccc(Cl)c(Cl)c2)C(CN2CCCC2)C1 (configuration not stated)
ED50 (Mus musculus [14]): 0.00052 mg/kg
IC50 [15]: 0.041 nM

Cc1ccc(CSc2nnc(-c3ccccn3)n2Cc2ccco2)cc1C(F)(F)F
Ki (Mu-type opioid receptor [6]): 1900 nM
Ki [16]: 5350 nM

CC(C)=CCN1CC[C@]2(C)c3cc(O)ccc3C[C@H]1[C@H]2C [(+)-PENTAZOCINE]
Ki [10]: 7.6 nM
EC50 [17]: 40 nM
Ki [16]: 62 nM

CN(C(=O)C(c1ccccc1)c1ccccc1)[C@H](CN1CC[C@H](O)C1)c1ccccc1 [ASIMADOLINE]
Ki [18]: 5.6 nM

CC(C)C[C@@H](NC(=O)[C@@H](CC1=CC=CCC1)NC(=O)[C@H](N)Cc1ccccc1)C(=O)N[C@H](CCCN)C(=O)N1CCOCC1
Ki [10]: 0.08 nM
AD50 (Mus musculus [12]): 0.013 mg/kg

Cc1cc(C)cc([C@@H]2CCCN2Cc2ccc(Oc3ccc(C(N)=O)cc3F)cc2)c1 [ATICAPRANT]
half-life [19]: 21 h
Tmax [20]: 1 h

CN1CC[C@]23c4c5ccc(O)c4O[C@H]2C(=O)CC[C@@]3(OCCCc2ccccc2)[C@H]1C5
Ki (Mu-type opioid receptor [21]): 0.073 nM
Ki [22]: 0.13 nM
Ki [4]: 0.3 nM
AD50 (Mus musculus [23]): 0.0007 mg/kg

CCCCN(CCc1ccccc1)CCc1cccc(O)c1
Activity [24]: 45.5%
Ki (Mu-type opioid receptor [6]): 360 nM
Ki [16]: 2700 nM

N=C(N)Nc1ccc2c3c([nH]c2c1)[C@@H]1Oc2c(O)ccc4c2[C@@]12CCN(CC1CC1)[C@H](C4)[C@]2(O)C3
Ki (Mu-type opioid receptor [21]): 20.3 nM
Ki [25]: 81.8 nM

COC(=O)[C@@H]1C[C@H](OC(C)=O)[C@H](O)[C@H]2[C@@]1(C)CC[C@H]1C(=O)O[C@H](c3ccoc3)C[C@]21C [1-ALPHA-HYDROXYSALVINORIN A]
half-life [26]: 3.75 h
half-life [27]: 3.75 h
half-life [28]: 3.75 h

CCCC[C@@H](NC(=O)[C@@H](CC1=CC=CCC1)NC(=O)[C@H](N)Cc1ccccc1)C(=O)N[C@H](CCCNC(=N)N)C(N)=O
Ki [10]: < 1 nM

C[C@H]1[C@H]2Cc3ccc(O)cc3[C@@]1(C)CCN2CCc1ccccc1
ED50 (Mus musculus [2]; Mus musculus, read-out: ED50): 6.3 mg/kg

O=C1CNC(=O)[C@H](Cc2ccccc2)NC(=O)[C@@H](Cc2c[nH]c3ccccc23)NC(=O)CCN1 (cyclo(FG[βAla][dW]))
Ki [29]: > 10 nM
Ki [7]: > 10 nM

COC(=O)[C@@H]1C[C@H](OC(=O)C2=Cc3ccccc3C2)C(=O)[C@H]2[C@@]1(C)CC[C@H]1C(=O)O[C@H](c3ccoc3)C[C@]21C
Ki (Mu-type opioid receptor [6]): 538 nM
EC50 (Mu-type opioid receptor [30]): 49.5 nM
Ki [10]: 49.7 nM
EC50 [17]: 853 nM

C#Cc1occc1[C@@H]1C[C@@]2(C)[C@@H](CC[C@@]3(C)[C@H](C(=O)OC)C[C@H](OC(C)=O)C(=O)[C@@]32C)C(=O)O1
Ki [10]: 2.5 nM

CC(C)C[C@@H](NC(=O)[C@@H](Cc1ccccc1)NC(=O)[C@H](N)Cc1ccccc1)C(=O)N[C@H](CCCCN)C(=O)N1CCC(N)(C(=O)O)CC1 [listing 2 of 2 here]
ED50 (Mus musculus [31]): 0.07 mg/kg
ED50 (Mus musculus [32]): 0.38 mg/kg
ED50 (Mus musculus [33]): 0.3 mg/kg
ED50 (Mus musculus [34]): 0.3 mg/kg

O=C(N[C@@H]1CC[C@@]2(O)[C@H]3Cc4ccc(O)c5c4[C@@]2(CCN3CC2CC2)[C@H]1O5)c1cc[n+](Cc2ccccc2)cc1
Ki (Mu-type opioid receptor [6]): 3.46 nM
Ki [10]: 3.46 nM
Ki [7]: 722 nM

CC(C)=CCN1CC[C@@]2(C)c3cc(O)ccc3CC1C2C (some centres not stated) [PENTAZOCINE]
Ki [10]: 7.6 nM
EC50 [17]: 40 nM
Ki [16]: 62 nM

C[N+]1(CC2CC2)CC[C@]23c4c5ccc(O)c4O[C@H]2C(=O)CC[C@@]3(O)[C@H]1C5 (some centres not stated) [METHYLNALTREXONE]
Ki (Mu-type opioid receptor [6]): 10 nM
EC50 [17]: 6.7 nM
Ki [35]: ~30 nM

C[C@H]1[C@@H]2Cc3ccc(O)cc3[C@]1(C)CCN2CC1CC1
ED50 (Mus musculus [36]): 0.077 mg/kg
ED50 (Mus musculus [37]): 0.47 mg/kg
